In brackets after ≈: the same amount, converted by molar mass. Read-outs that look alike come from different tables or passages of the source. Starred links: 1 amine or outer side, 2 acyl side, 3 side chain; linkers in the order of their positions; H or OH if unused. Positions of bridges follow the written chain, without caps; N, C: chain ends. Non-standard residues stand in square brackets, D forms with d. Residues, ends and D or L forms follow the SMILES beside them. ξ: configuration not given here. *: point of attachment. Hexadecanesulfonyl = CCCCCCCCCCCCCCCCS(=O)(=O)*; ξAbu(βξ-NH2) = CC(N[*:3])C(N[*:1])C(=O)[*:2]; ξAsp(βξ-Me) = CC(C(=O)O)C(N)C(=O)O; ξAbu(3ξ-NH2) = CC(N)C(N)C(=O)O; X1 = CCCCCCCCCCS(=O)(=O)*; Pip = O=C(O)[CH]1CCCCN1; ξD = NC(CC(=O)O)C(=O)O; Dap = NC[CH](N)C(=O)O; ξI = CCC(C)C(N)C(=O)O; ξPip = O=C(O)C1CCCCN1; ξT = CC(O)C(N)C(=O)O; ξDap = NCC(N)C(=O)O; ξP = O=C(O)C1CCCN1
Key:
[1] = test system: Staphlococcus aureus strain Smith; format: cell-based
Protocol: MIC values were determined by microliter serial dilution using Staphlococcus aureus strain Smith as the assay organism, which was grown in Mueller-Hinton broth with and without CaCl2.

Staphylococuss aureus = experiment: Resistance to deacylase enzyme: agar well zone diffusion bioassay of deacylase broth samples; format: cell-based; conditions: 9 mm well, 100 μl of sample, incubated 16 hrs. at 28° C.; for Bioassay zone dia. 16 hours: after 16 hours in deacylase broth, 200 rpm, 84° C.; for Bioassay zone dia. Zero time: zero time in deacylase broth
Protocol: (§1) One milligram of the hexadecylsulfonyl-L-tryptophan derivative of the core antibiotic of laspartomycin (see Section 5.4 for preparation) was added to 2 mL of deacylase broth (prepared as described in Section 5.1) and a zero time sample (0.5 mL) was removed and stored by freezing. The reaction mixture was placed on a shaker at 200 rpm and 84° C. for 16 hours. The zero and 16 hour samples were then studied by HPLC and by agar well zone diffusion assay using Staphylococuss aureus as a test organism. The same conditions were used to compare laspartomycin to enzyme deactivation. […] Under the same conditions Antibiotic A21978C and Aspartocin were completely deactivated within two hours and 16 hours, respectively.

deacylase broth = experiment: in vitro; format: in vitro ADME, Actinoplanes utahensis NRRL 12052
Protocol: (§2) The high-producing, natural variant was used in the known fermentation protocol employed (Boeck et al., 1988. J. Antibiot., 41, 1085). A stock culture of Actinoplanes utahensis NRRL 12052 variant, preserved in 20% glycerol at −70° C., was introduced into a 25×150 mm test tube containing 10 mL of a medium comprised of 2.0% sucrose, 2.0% pre-cooked oatmeal, 0.5% distiller's grain, 0.25% yeast, 0.1% K2HPO4, 0.05% KCl, 0.05% MgSO4-7H2O and 0.0002% FeSO4-7H2O in deionized water. After incubation at 30° C. for 72 hrs on a rotary shaker orbiting at 250 rpm the resulting mycelial suspension was transferred into 50 mL of PM3 medium in a 250 mL Erlenmeyer flask. The PM3 medium contained 2.0% sucrose, 1.0% peanut meal, 0.12% K2HPO4, 0.05% KH2PO4 and 0.025% MgSO4-7H2O, in tap water. The flask was incubated at a temperature of 30° C. for a period of between 60 to 90 hrs. The whole broth from this fermentation contained the deacylase enzyme.
as §1

Staphylococcus aureus = experiment: MIC against Staphylococcus aureus (comparison with aspartocin); format: cell-based
Protocol: One drop of piperdine was added to about 5.5 mg of the product from Section 5.2.4 dissolved in 2.0 mL of 2:1 mixture of dimethylsulfoxide:methanol. Monitoring by HPLC indicated the reaction was complete after 60 minutes at room temperature. The reaction was quenched by addition of 6.0 mL cooled 0.2 M ammonium phosphate at pH 7.2. The quenched reaction mixture was applied to a 0.5 g resin cartridge (ENVI-Chrom P) and eluted with a stepwise gradient of pH 7.2 phosphate-buffered aqueous acetonitrile. The product was eluted with 25% acetonitrile. Appropriate fractions were pooled and acetonitrile was removed under vacuum at room temperature. The product was desalted by adsorption onto a 0.5 g resin cartridge which was then rinsed with 10% acetonitrile, followed by 50% acetonitrile. The 50% acetonitrile eluate was evaporated to remove acetonitrile and the resulting aqueous solution freeze dried to provide about 1.5 mg of white solid. FAB-MS: m/z 1379 (M+Na)^+ was consistent with the expected structure.

deacylase = experiment: in vitro; format: in vitro ADME, Actinoplanes utahensis NRRL 12052; conditions: Actinoplanes utahensis, cells or culture medium
Protocol: as §2, §1

For `CCCCCCCCCCCCCCCCS(=O)(=O)NC(Cc1ccccc1)C(=O)NC(CC(=O)O)C(=O)NC1C(=O)N2CCCCC2C(=O)NC(C(C)C(=O)O)C(=O)NC(CC(=O)O)C(=O)NCC(=O)NC(CC(=O)O)C(=O)NCC(=O)NC(C(C)N)C(=O)NC(C(C)C)C(=O)N2CCCC2C(=O)NC1C` (stereo not drawn) [Compound 62] (Hexadecanesulfonyl-FD[ξAbu(βξ-NH2)][Pip][ξAsp(βξ-Me)]DGDG[ξAbu(3ξ-NH2)]VP; lactam 3-C; configuration not given here), the “MIC w CaCl2 (4 mm)” value [1] was 4000 µg/mL (≈ 2610 µM) and the “MIC w/o CaCl2” value [1] was 4000 µg/mL (≈ 2610 µM).
In the case of `CCCCCCCCCCCCCCCCS(=O)(=O)NC(Cc1c[nH]c2ccccc12)C(=O)NC(CC(=O)O)C(=O)NC1CNC(=O)C2CCCN2C(=O)C(C(C)CC)NC(=O)C(C(C)O)NC(=O)CNC(=O)C(CC(=O)O)NC(=O)CNC(=O)C(CC(=O)O)NC(=O)CNC(=O)C2CCCCN2C1=O` (stereo not drawn) [Compound 52] (Hexadecanesulfonyl-WD[Dap][Pip]GDGDGTIP; lactam 3-C; configuration not given here), the “MIC w CaCl2 (4 mm)” value [1] is reported as 4000 µg/mL (≈ 2670 µM) and the “MIC w/o CaCl2” value [1] is reported as 8000 to 16000 µg/mL.
With laspartomycin [reference compound] the “Bioassay zone dia. 16 hours” value (Staphylococuss aureus) was “no zone”, the “Bioassay zone dia. Zero time” value (Staphylococuss aureus) was 15.5 mm and the “MIC w CaCl2 (4 mm)” value ([1]; S. aureus strain Smith, Mueller-Hinton broth, with CaCl2 (4 mm)) was 2000 µg/mL. For the same molecule, the “MIC w/o CaCl2” value ([1]; S. aureus strain Smith, Mueller-Hinton broth, without CaCl2) was 16000 µg/mL, the “HPLC Peak Area zero time” value (deacylase broth) was 100% and the “deactivation / degradation by the enzyme preparation (in words)” value (deacylase broth) was “complete deactivation”. For the same molecule, the “HPLC Peak Area 16 hours” value (deacylase broth; Actinoplanes utahensis, cells or culture medium, 16 h, 0.5 mg/mL) was 0%.
`CCCCCCCCCCS(=O)(=O)NCC(=O)NC(CC(=O)O)C(=O)NC1C(=O)N2CCCCC2C(=O)NC(C(C)C(=O)O)C(=O)NC(CC(=O)O)C(=O)NCC(=O)NC(CC(=O)O)C(=O)NCC(=O)NC(C(C)N)C(=O)NC(C(C)C)C(=O)N2CCCC2C(=O)NC1C` (stereo not drawn) [Compound 58] (X1-GD[ξAbu(βξ-NH2)][Pip][ξAsp(βξ-Me)]DGDG[ξAbu(3ξ-NH2)]VP; lactam 3-C; configuration not given here) was tested, and the “MIC w CaCl2 (4 mm)” value [1] was 1000 µg/mL (≈ 737 µM) and the “MIC w/o CaCl2” value [1] was 32000 µg/mL (≈ 23600 µM).
With `CCCCCCCCCCCCCCCCS(=O)(=O)NC(Cc1ccccc1)C(=O)NC(CC(=O)O)C(=O)NC1CNC(=O)C2CCCN2C(=O)C(C(C)CC)NC(=O)C(C(C)O)NC(=O)CNC(=O)C(CC(=O)O)NC(=O)CNC(=O)C(CC(=O)O)NC(=O)CNC(=O)C2CCCCN2C1=O` (stereo not drawn) [Compound 56] (Hexadecanesulfonyl-FD[Dap][Pip]GDGDGTIP; lactam 3-C; configuration not given here) the “MIC w CaCl2 (4 mm)” value [1] was 4000 µg/mL (≈ 2740 µM) and the “MIC w/o CaCl2” value [1] was 8000 µg/mL (≈ 5480 µM).
“Decanesulfonylglycyl Aspartocin [decanesulfonylglycyl derivative]” was tested, and the “MIC values compared with aspartocin” value (Staphylococcus aureus) was “essentially the same as those for aspartocin”.
`CCCCCCCCCCCCCCCCS(=O)(=O)N[C@@H](Cc1c[nH]c2ccccc12)C(=O)N[C@@H](CC(=O)O)C(=O)NC1CNC(=O)C2CCCN2C(=O)C(C(C)CC)NC(=O)C(C(C)O)NC(=O)CNC(=O)C(CC(=O)O)NC(=O)CNC(=O)C(CC(=O)O)NC(=O)CNC(=O)C2CCCCN2C1=O` (stereo partly drawn) [Hexadecylsulfonyl-L-Tryptophan Derivative of the Core Antibiotic of Laspartomycin] (Hexadecanesulfonyl-WD[ξDap][ξPip]G[ξD]G[ξD]G[ξT][ξI][ξP]; lactam 3-C) was tested, and the “Bioassay zone dia. 16 hours” value (Staphylococuss aureus) was 12.8 mm, the “Bioassay zone dia. Zero time” value (Staphylococuss aureus) was 13.7 mm and the “HPLC Peak Area zero time” value (deacylase broth) was 100%. For the same molecule, the “deactivation / degradation by the enzyme preparation (in words)” value (deacylase broth) was “degraded at a much slower rate” and the remaining at 16 h, 0.5 mg/mL (deacylase) was 53%.

Source: US6750199B2, “Antimicrobial sulfonamide derivatives of lipopeptide antibiotics” (Micrologix Biotech Inc., priority 2000, dated 2004)
